Results reported in ChEMBL document CHEMBL4507292 (2021).

What was measured:
[1] = target: Serine/threonine-protein kinase WNK3 (Homo sapiens) (UniProt Q9BYP7); settings: Compound concentration 1000.0 nM
[2] = target: Transient receptor potential cation channel subfamily M member 6 (Homo sapiens) (UniProt Q9BX84); settings: Compound concentration 1000.0 nM
[3] = target: Delta-type opioid receptor (Homo sapiens) (UniProt P41143); settings: Compound concentration 10.0 uM
[4] = target: Mitogen-activated protein kinase kinase kinase 11 (Homo sapiens) (UniProt Q16584); settings: Compound concentration 1000.0 nM
[5] = target: Histamine H1 receptor (Homo sapiens) (UniProt P35367); settings: Compound concentration 10.0 uM
[6] = target: Receptor tyrosine-protein kinase erbB-3 (Homo sapiens) (UniProt P21860); settings: Compound concentration 1000.0 nM
[7] = target: Ephrin type-B receptor 4 (Homo sapiens) (UniProt P54760); settings: Compound concentration 1000.0 nM
[8] = target: Dual specificity mitogen-activated protein kinase kinase 2 (Homo sapiens) (UniProt P36507); settings: Compound concentration 1000.0 nM
[9] = target: Mitogen-activated protein kinase kinase kinase 7 (Homo sapiens) (UniProt O43318); settings: Compound concentration 1000.0 nM
[10] = target: Tyrosine-protein kinase Lyn (Homo sapiens) (UniProt P07948); settings: Compound concentration 1000.0 nM
[11] = target: Leukocyte tyrosine kinase receptor (Homo sapiens) (UniProt P29376); settings: Compound concentration 1000.0 nM
[12] = target: T1, Alpha-2C adrenergic receptor (Homo sapiens) (UniProt P18825); settings: Compound concentration 10.0 uM
T1 sequence (whole entry): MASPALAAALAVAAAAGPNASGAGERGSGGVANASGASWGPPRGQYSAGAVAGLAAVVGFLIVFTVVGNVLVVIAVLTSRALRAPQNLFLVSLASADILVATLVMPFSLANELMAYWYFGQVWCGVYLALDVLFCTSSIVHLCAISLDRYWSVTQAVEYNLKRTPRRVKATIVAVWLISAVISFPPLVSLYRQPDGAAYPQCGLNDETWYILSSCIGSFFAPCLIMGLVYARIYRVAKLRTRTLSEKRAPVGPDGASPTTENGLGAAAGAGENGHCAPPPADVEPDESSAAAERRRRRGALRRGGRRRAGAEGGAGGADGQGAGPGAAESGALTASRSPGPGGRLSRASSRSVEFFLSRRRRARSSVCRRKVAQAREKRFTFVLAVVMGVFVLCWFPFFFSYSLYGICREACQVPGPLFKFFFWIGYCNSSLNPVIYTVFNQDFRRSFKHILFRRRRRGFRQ

[13] = system: Phosphatidylinositol 4,5-bisphosphate 3-kinase catalytic subunit alpha isoform (Homo sapiens), P42336 [E542K]; settings: Compound concentration 1000.0 nM
[14] = target: Insulin-like growth factor 1 receptor (Homo sapiens) (UniProt P08069); settings: Compound concentration 1000.0 nM
[15] = target: Muscarinic acetylcholine receptor M1 (Homo sapiens) (UniProt P11229); settings: Compound concentration 10.0 uM
[16] = target: Interleukin-1 receptor-associated kinase 3 (Homo sapiens) (UniProt Q9Y616); settings: Compound concentration 1000.0 nM
[17] = target: Ephrin type-A receptor 6 (Homo sapiens) (UniProt Q9UF33); settings: Compound concentration 1000.0 nM
[18] = target: Fibroblast growth factor receptor 4 (Homo sapiens) (UniProt P22455); settings: Compound concentration 1000.0 nM
[19] = target: Serine/threonine-protein kinase MAK (Homo sapiens) (UniProt P20794); settings: Compound concentration 1000.0 nM
[20] = target: Ephrin type-A receptor 5 (Homo sapiens) (UniProt P54756); settings: Compound concentration 1000.0 nM
[21] = target: Non-receptor tyrosine-protein kinase TNK1 (Homo sapiens) (UniProt Q13470); settings: Compound concentration 1000.0 nM
[22] = system: Proto-oncogene tyrosine-protein kinase receptor Ret (Homo sapiens), P07949 [M918T]; settings: Compound concentration 1000.0 nM
[23] = target: Ribosomal protein S6 kinase alpha-5 (Homo sapiens) (UniProt O75582); settings: Compound concentration 1000.0 nM
[24] = target: Microtubule-associated serine/threonine-protein kinase 1 (Homo sapiens) (UniProt Q9Y2H9); settings: Compound concentration 1000.0 nM
[25] = target: Serine/threonine-protein kinase PAK 6 (Homo sapiens) (UniProt Q9NQU5); settings: Compound concentration 1000.0 nM
[26] = target: Ephrin type-B receptor 2 (Homo sapiens) (UniProt P29323); settings: Compound concentration 1000.0 nM
[27] = target: AP2-associated protein kinase 1 (Homo sapiens) (UniProt Q2M2I8); settings: Compound concentration 1000.0 nM
[28] = target: Receptor-interacting serine/threonine-protein kinase 4 (Homo sapiens) (UniProt P57078); settings: Compound concentration 1000.0 nM
[29] = target: Citron Rho-interacting kinase (Homo sapiens) (UniProt O14578); settings: Compound concentration 1000.0 nM
[30] = system: Phosphatidylinositol 4,5-bisphosphate 3-kinase catalytic subunit alpha isoform (Homo sapiens), P42336 [Q546K]; settings: Compound concentration 1000.0 nM
[31] = target: Homeodomain-interacting protein kinase 1 (Homo sapiens) (UniProt Q86Z02); settings: Compound concentration 1000.0 nM
[32] = system: Hepatocyte growth factor receptor (Homo sapiens), P08581 [Y1235D]; settings: Compound concentration 1000.0 nM
[33] = target: Ribosomal protein S6 kinase alpha-6 (Homo sapiens) (UniProt Q9UK32); settings: Compound concentration 1000.0 nM
[34] = target: Serine/threonine-protein kinase 25 (Homo sapiens) (UniProt O00506); settings: Compound concentration 1000.0 nM
[35] = system: Tyrosine-protein kinase ABL1 (Homo sapiens), P00519 [F317L]; settings: Compound concentration 1000.0 nM
[36] = system: Proto-oncogene tyrosine-protein kinase receptor Ret (Homo sapiens), P07949 [V804M]; settings: Compound concentration 1000.0 nM
[37] = target: Serine/threonine-protein kinase ICK (Homo sapiens) (UniProt Q9UPZ9); settings: Compound concentration 1000.0 nM

Chain of Muscarinic acetylcholine receptor M1 (Homo sapiens) (P11229 whole entry): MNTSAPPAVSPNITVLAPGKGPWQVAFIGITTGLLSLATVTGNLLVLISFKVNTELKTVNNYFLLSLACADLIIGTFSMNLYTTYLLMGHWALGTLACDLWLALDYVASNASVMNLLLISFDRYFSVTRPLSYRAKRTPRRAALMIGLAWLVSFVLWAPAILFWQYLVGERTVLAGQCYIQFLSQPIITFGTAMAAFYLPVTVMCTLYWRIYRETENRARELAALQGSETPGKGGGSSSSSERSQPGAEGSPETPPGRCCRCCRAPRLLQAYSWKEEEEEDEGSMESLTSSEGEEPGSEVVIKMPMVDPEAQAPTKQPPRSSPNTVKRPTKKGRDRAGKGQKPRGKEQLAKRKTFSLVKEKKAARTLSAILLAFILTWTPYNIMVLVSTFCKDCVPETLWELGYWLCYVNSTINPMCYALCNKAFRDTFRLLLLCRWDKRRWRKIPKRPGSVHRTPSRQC
Chain of Leukocyte tyrosine kinase receptor (Homo sapiens) (P29376 whole entry): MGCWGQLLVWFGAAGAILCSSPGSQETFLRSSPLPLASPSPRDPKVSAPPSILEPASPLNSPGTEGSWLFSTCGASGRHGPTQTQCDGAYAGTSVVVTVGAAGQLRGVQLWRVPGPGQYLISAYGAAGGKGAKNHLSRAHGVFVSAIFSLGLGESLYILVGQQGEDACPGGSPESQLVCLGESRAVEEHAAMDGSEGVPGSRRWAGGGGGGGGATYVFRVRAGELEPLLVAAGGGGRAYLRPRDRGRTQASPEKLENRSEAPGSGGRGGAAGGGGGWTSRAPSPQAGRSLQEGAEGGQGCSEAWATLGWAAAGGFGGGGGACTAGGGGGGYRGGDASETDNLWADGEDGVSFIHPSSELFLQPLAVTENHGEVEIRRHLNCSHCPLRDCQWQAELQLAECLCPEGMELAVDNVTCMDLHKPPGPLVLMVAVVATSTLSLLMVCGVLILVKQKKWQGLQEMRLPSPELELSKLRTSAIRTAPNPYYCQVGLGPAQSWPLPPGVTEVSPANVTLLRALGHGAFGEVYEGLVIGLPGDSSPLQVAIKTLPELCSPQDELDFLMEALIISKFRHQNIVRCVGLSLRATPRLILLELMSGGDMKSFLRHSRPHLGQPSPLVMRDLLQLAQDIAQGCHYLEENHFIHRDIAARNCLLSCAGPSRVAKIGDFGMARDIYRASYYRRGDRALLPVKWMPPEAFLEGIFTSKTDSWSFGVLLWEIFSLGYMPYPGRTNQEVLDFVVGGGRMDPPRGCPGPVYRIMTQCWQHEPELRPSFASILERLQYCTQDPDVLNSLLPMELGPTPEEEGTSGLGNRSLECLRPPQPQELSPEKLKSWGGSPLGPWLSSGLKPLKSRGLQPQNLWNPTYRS
Chain of Homeodomain-interacting protein kinase 1 (Homo sapiens) (Q86Z02 whole entry, looked up): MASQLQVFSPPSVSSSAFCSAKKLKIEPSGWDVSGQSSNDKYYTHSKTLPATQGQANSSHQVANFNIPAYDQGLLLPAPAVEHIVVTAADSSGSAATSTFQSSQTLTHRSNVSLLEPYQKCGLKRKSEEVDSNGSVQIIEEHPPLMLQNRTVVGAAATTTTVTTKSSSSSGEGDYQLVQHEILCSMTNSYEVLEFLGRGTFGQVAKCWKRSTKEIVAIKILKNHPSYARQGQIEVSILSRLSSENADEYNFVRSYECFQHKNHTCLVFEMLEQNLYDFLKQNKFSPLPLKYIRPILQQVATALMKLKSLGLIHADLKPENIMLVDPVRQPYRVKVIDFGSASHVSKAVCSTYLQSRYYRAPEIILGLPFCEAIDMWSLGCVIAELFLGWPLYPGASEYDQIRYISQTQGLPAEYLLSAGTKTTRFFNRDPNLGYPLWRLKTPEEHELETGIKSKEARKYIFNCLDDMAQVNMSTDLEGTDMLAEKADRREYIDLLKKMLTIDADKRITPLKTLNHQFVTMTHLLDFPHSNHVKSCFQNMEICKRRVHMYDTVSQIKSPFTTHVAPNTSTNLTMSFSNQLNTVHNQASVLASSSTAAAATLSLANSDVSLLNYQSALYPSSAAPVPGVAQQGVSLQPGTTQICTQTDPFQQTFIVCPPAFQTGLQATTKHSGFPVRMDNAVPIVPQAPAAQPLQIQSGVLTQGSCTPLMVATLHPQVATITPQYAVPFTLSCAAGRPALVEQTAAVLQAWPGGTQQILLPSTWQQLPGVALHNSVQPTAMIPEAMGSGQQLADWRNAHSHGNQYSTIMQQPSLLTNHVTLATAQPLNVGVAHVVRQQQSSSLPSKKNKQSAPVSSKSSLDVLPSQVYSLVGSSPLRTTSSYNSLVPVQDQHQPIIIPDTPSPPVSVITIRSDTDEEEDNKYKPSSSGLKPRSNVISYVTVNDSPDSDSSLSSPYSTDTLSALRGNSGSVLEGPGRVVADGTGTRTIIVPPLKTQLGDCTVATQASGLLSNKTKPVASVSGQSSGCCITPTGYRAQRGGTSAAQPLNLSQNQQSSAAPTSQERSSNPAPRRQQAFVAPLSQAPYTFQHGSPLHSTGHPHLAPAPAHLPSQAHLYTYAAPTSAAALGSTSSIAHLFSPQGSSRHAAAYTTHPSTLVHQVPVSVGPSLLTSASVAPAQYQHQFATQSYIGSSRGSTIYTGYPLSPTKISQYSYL
Chain of Transient receptor potential cation channel subfamily M member 6 (Homo sapiens) (Q9BX84 whole entry): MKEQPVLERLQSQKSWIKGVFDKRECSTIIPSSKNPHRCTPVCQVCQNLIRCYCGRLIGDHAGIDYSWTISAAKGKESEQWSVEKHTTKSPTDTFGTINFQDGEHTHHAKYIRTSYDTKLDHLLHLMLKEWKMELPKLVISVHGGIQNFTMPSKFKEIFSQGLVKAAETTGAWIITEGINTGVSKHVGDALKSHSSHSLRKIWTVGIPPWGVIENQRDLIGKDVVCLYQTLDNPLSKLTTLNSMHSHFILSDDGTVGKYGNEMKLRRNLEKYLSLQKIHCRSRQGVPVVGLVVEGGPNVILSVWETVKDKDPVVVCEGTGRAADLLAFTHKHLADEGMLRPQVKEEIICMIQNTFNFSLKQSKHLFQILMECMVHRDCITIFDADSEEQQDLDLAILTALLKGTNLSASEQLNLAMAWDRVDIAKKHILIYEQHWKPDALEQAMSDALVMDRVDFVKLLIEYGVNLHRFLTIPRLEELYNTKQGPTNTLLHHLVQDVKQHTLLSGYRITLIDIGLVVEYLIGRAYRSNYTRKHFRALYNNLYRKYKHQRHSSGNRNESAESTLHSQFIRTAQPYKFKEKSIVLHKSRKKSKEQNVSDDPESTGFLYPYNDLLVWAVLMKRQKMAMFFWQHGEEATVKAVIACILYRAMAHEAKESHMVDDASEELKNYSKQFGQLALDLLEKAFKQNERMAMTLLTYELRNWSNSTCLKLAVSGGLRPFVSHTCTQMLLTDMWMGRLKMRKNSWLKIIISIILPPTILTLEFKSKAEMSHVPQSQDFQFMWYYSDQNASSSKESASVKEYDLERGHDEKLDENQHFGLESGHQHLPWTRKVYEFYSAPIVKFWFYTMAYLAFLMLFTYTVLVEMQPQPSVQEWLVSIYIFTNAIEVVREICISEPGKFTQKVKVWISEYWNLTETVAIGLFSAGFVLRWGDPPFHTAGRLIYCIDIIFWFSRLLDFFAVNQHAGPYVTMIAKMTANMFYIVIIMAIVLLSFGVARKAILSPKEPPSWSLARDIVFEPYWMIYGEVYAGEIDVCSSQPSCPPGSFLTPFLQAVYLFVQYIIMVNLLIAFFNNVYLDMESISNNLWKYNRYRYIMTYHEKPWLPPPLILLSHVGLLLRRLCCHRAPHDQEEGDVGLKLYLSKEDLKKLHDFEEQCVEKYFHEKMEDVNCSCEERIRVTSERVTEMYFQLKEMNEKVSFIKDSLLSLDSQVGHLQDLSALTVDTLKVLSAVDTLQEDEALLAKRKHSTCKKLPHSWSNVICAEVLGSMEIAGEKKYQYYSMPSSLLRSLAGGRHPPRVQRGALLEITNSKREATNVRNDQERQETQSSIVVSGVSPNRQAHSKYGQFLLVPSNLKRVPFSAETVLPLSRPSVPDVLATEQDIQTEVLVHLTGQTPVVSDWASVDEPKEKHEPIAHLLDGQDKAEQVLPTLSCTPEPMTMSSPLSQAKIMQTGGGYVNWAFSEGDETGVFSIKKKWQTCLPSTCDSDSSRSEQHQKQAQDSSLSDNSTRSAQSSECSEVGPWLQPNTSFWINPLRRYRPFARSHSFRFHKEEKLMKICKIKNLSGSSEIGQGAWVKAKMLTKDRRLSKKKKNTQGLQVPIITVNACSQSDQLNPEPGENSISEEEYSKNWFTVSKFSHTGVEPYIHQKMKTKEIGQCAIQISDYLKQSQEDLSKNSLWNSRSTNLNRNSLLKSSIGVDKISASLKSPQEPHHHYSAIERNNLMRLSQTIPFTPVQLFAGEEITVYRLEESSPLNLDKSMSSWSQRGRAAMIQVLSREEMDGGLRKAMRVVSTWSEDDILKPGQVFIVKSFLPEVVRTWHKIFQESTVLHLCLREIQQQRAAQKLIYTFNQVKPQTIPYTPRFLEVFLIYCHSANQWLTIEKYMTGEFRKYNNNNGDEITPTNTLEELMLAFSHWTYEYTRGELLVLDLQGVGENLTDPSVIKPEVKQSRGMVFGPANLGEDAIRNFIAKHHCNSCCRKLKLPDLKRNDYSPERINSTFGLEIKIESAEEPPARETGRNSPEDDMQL
Chain of Histamine H1 receptor (Homo sapiens) (P35367 whole entry): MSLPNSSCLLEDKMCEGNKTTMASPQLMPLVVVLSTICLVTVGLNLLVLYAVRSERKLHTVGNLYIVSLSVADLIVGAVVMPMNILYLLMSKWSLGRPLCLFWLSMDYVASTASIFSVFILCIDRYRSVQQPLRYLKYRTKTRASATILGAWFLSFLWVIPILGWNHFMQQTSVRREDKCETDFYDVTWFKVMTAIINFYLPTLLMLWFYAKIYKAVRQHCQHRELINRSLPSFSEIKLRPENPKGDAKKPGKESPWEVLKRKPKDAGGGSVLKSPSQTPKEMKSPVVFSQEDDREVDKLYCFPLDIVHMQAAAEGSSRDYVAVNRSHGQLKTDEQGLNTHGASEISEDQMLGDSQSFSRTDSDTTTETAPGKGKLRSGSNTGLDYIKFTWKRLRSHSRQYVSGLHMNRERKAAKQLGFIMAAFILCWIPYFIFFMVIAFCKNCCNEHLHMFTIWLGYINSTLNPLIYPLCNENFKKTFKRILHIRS

Cc1c(C(=O)O)cc(-c2ccc(C3CCNCC3)cc2)c2ccc(-c3ccc(C(F)(F)F)cc3)cc12 [PPTN-NC]
inactive: residual activity [1] 100% | residual activity [2] 100% | inhibition [3] 32% | residual activity [4] 100% | inhibition [5] 12.6% | residual activity [6] 86% | residual activity [7] 100% | residual activity [8] 100% | residual activity [9] 100% | residual activity [10] 90% | residual activity [11] 100% | inhibition [12] 46.4% | residual activity [13] 99% | residual activity [14] 90% | inhibition [15] 7.22% | residual activity [16] 100% | residual activity [17] 100% | residual activity [18] 100% | residual activity [19] 91% | residual activity [20] 100% | residual activity [21] 100% | residual activity [22] 100% | residual activity [23] 100% | residual activity [24] 100% | residual activity [25] 100% | residual activity [26] 92% | residual activity [27] 100% | residual activity [28] 97% | residual activity [29] 100% | residual activity [30] 100% | residual activity [31] 100% | residual activity [32] 100% | residual activity [33] 100% | residual activity [34] 100% | residual activity [35] 100% | residual activity [36] 98% | residual activity [37] 100%

O=C(O)c1cc(-c2ccc(C3CCNCC3)cc2)c2ccc(-c3ccc(C(F)(F)F)cc3)cc2c1 [PPTN]
inactive: residual activity [1] 100% | residual activity [2] 100% | inhibition [3] 36.4% | residual activity [4] 100% | inhibition [5] 21.6% | residual activity [6] 85% | residual activity [7] 100% | residual activity [8] 90% | residual activity [9] 100% | residual activity [10] 100% | residual activity [11] 100% | inhibition [12] 30.2% | residual activity [13] 100% | residual activity [14] 95% | inhibition [15] 4.16% | residual activity [16] 100% | residual activity [17] 100% | residual activity [18] 100% | residual activity [19] 100% | residual activity [20] 97% | residual activity [21] 100% | residual activity [22] 92% | residual activity [23] 100% | residual activity [24] 100% | residual activity [25] 100% | residual activity [26] 100% | residual activity [27] 100% | residual activity [28] 100% | residual activity [29] 100% | residual activity [30] 100% | residual activity [31] 97% | residual activity [32] 100% | residual activity [33] 100% | residual activity [34] 100% | residual activity [35] 100% | residual activity [36] 100% | residual activity [37] 100%
